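48-hour exposure; five concentrations; linearly interpolated endpoints. Abbreviation: GI50, concentration required for 50% inhibition of growth. The concentration for full growth arrest is given as TGI.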
Key:
Test in all cases: DTP human tumour cell line panel, 48 h
[1] = tested on: SR leukemia
[2] = tested on: RPMI-8226 leukemia
[3] = tested on: SF-295 CNS
[4] = tested on: MOLT-4 leukemia
[5] = tested on: IGROV1 ovarian
[6] = tested on: SNB-75 CNS
[7] = tested on: NCI-H522 lung
[8] = tested on: SK-OV-3 ovarian
[9] = tested on: RXF 393 renal
[10] = tested on: A498 renal

Row | Compound | TGI [1] | TGI [2] | TGI [3] | TGI [4] | TGI [5] | TGI [6] | TGI [7] | GI50 [1] | GI50 [2] | GI50 [3] | GI50 [8] | TGI [8] | GI50 [9] | TGI [9] | GI50 [4] | GI50 [5] | GI50 [6] | GI50 [7] | TGI [10] | GI50 [10]
1 | COC(=O)[C@H]1[C@H]2C[C@@H]3c4[nH]c5cc(OC)ccc5c4CCN3C[C@H]2C[C@@H](OC(=O)c2cc(OC)c(OC)c(OC)c2)[C@@H]1OC | 34 µM | 39.5 µM | 37.7 µM | 50.6 µM | 47.1 µM | 10.2 µM | 34 µM | – | – | – | – | – | – | – | – | – | – | – | – | –
2 | CN(C)c1ccc2c(c1)CN1C(=O)c3ccccc3C1=N2 | > 100 µM | > 100 µM | > 100 µM | > 100 µM | > 100 µM | > 100 µM | > 100 µM | > 100 µM | > 100 µM | > 100 µM | > 100 µM | > 100 µM | > 100 µM | > 100 µM | > 100 µM | > 100 µM | > 100 µM | 36.6 µM | – | –
3 | CC(C)(C)[Si](C)(C)OCC1CCC(n2cnc3c(=O)[nH]cnc32)O1 (stereo not drawn) | > 100 µM | > 100 µM | > 100 µM | > 100 µM | > 100 µM | 99.8 µM | > 100 µM | – | – | – | – | > 100 µM | – | > 100 µM | – | – | – | – | – | –
4 | O=C(c1ccccc1)C(c1ccccc1)C1(O)C(=O)Nc2ccccc21 (stereo not drawn) | – | > 100 µM | > 100 µM | > 100 µM | > 100 µM | > 100 µM | > 100 µM | – | – | – | – | > 100 µM | – | > 100 µM | – | – | – | – | > 100 µM | –
5 | CC(C)N(C(=O)C12C3C4C5C3C1(C(=O)N(C(C)C)C(C)C)C5(C#N)C42)C(C)C (stereo not drawn) | 66.4 µM | 66.2 µM | > 100 µM | > 100 µM | > 100 µM | > 100 µM | > 100 µM | – | – | – | – | > 100 µM | – | – | – | – | – | – | > 100 µM | –
6 | Cc1oc2nc[nH]c(=O)c2c1C(=O)/C=C/c1ccc(Cl)cc1 | 6.3 µM | 5.16 µM | 16 µM | 9.98 µM | 10.8 µM | – | 5.74 µM | 1.51 µM | 1.66 µM | 4.5 µM | 3.09 µM | 13.8 µM | 1.97 µM | 4.98 µM | 2.75 µM | 1.82 µM | – | 1.79 µM | 5.83 µM | 1.48 µM
7 | Cc1cc2cccnc2c2ncccc12 | – | 9.07 µM | 4.57 µM | – | 6.44 µM | > 100 µM | 17.9 µM | – | 2.43 µM | 0.555 µM | 0.756 µM | 8.42 µM | 1.89 µM | 6.77 µM | – | 1.18 µM | 3.24 µM | 3.52 µM | 7.3 µM | 1.59 µM
8 | O=C(C/C(=N\NC(=O)C[n+]1ccccc1)C(=O)Nc1nc2ccc([N+](=O)[O-])cc2s1)CC(c1ccccc1)c1c(O)c2ccccc2oc1=O (stereo not drawn) | > 100 µM | > 100 µM | > 100 µM | > 100 µM | > 100 µM | – | > 100 µM | – | – | – | – | > 100 µM | – | > 100 µM | – | – | – | – | > 100 µM | –
9 | O=C(/C=C1\C(=O)N(Cc2ccc([N+](=O)[O-])cc2)c2ccccc21)c1ccc(OCCN2CCCCC2)cc1 | – | 4.13 µM | 4.12 µM | 2.73 µM | – | 11.3 µM | 1.99 µM | – | 1.35 µM | 1.78 µM | 2.78 µM | 11.7 µM | – | – | 0.456 µM | – | 2.22 µM | 0.614 µM | 18 µM | 4.09 µM
10 | C=C[C@@]1(C)CCC2(O)C(CCC3C2(C)CCC[C@@]3(C)COC(=O)CC(=O)OC)C1 (stereo partly drawn) | 43.9 µM | 47 µM | – | 36 µM | 71.7 µM | 48.4 µM | 32.4 µM | – | – | – | – | > 100 µM | – | 61.5 µM | – | – | – | – | – | –
11 | Nc1ncnc2c1ncn2C1OC(CSC(F)(F)F)C(O)C1O (stereo not drawn) | – | > 100 µM | > 100 µM | > 100 µM | > 100 µM | > 100 µM | > 100 µM | – | – | – | – | > 100 µM | – | – | – | – | – | – | > 100 µM | –
12 | CN1CCN(CCCOc2cccc3nc(Nc4ccc(Cl)c(F)c4)ccc23)CC1 | – | 5.88 µM | 3.46 µM | 3.77 µM | 4.31 µM | – | 3.33 µM | – | 2.55 µM | 1.79 µM | 1.79 µM | 3.44 µM | 1.96 µM | 4.04 µM | 1.82 µM | 1.95 µM | – | 1.75 µM | 8.28 µM | 2.39 µM
13 | COc1ccc(C2=Nc3ccccc3SC(C)C2)cc1 (stereo not drawn) | – | 60.2 µM | > 100 µM | > 100 µM | > 100 µM | > 100 µM | > 100 µM | – | – | – | – | > 100 µM | – | > 100 µM | – | – | – | – | > 100 µM | –
14 | COc1cc2c(c(OC)c1OC)C(=O)CC(c1cccc(NC(=O)c3ccc(Br)cc3)c1)O2 (stereo not drawn) | – | 3.93 µM | > 100 µM | 4.19 µM | > 100 µM | – | 6.43 µM | – | 1.44 µM | 2.6 µM | 4.32 µM | > 100 µM | 4.07 µM | > 100 µM | 1.54 µM | 3.05 µM | – | 1.49 µM | 8.15 µM | 1.55 µM
15 | CN1C(OCc2ccccc2)c2c(ccc3c2OCO3)C2C=Cc3cc4c(cc3C21)OCO4 (stereo not drawn) | – | 0.584 µM | 2.81 µM | 0.678 µM | 2.09 µM | 2.71 µM | 2.16 µM | – | – | – | – | 2.46 µM | – | 2.31 µM | – | – | – | – | – | –
16 | CCOC(=O)c1cc(/C=C/C(C)=C/C(=O)OC)oc1-c1ccccc1 | – | > 100 µM | > 100 µM | > 100 µM | > 100 µM | – | > 100 µM | – | – | – | – | > 100 µM | – | – | – | – | – | – | > 100 µM | –
17 | COc1cc(/C=N/Nc2ncnc3c2cnn3C(C)C)ccc1O | – | > 17.8 µM | > 25 µM | > 20.7 µM | 20.5 µM | 9.57 µM | > 25 µM | – | 9.76 µM | 9.41 µM | 10.1 µM | > 25 µM | 4.66 µM | 12.7 µM | 6.53 µM | 7.56 µM | 0.506 µM | 6.78 µM | 24.8 µM | 8.58 µM
18 | CC1(C)C(c2ccccc2)=NN(O)c2ccccc21 | – | > 100 µM | > 100 µM | > 100 µM | > 100 µM | > 100 µM | > 100 µM | – | – | – | – | > 100 µM | – | > 100 µM | – | – | – | – | > 100 µM | –
